Assay results as given in US11578055B2, “Triazacyclododecansulfonamide (“TCD”)-based protein secretion inhibitors” (KEZAR LIFE SCIENCES, priority 2018, dated 2023).
pEC50, pIC50: −log10 of the molar value. Counter-ions that a name gives are not always drawn.

Legend:
[1] = test system: PD1 signal sequence plus 10 amino acids fused to Gaussia Luciferase (PD1-ss+10aa/Gaussia Luciferase); experiment: Dox Induced PD1-ss-Gluc Assay; type: cell-based; conditions: 24 hr, 293FRT/TO; read-out: 24 hr Dox Inducible PD1ssGluc 293FRT/TO: Mean IC50
Excerpt: FIp-In 293 T-REx™ cells were transfected with pcDNA™5/FRT/TO plasmid inserted with cDNA encoding Gaussia Luciferase fused to the 3′ end of cDNA encoding PD1 signal sequence plus 10 amino acids (N-[…]-C) (SEQ ID NO: 1). Transfected cells were selected for resistance to the selectable markers Hygromycin and Blasticidin to create a stable cell line that contained the PD1-ss+10aa/Gaussia Luciferase cDNA insert whose expression was regulated under the T-REx™ system. The day before assay, cells were trypsinized and plated in 384-well tissue culture plates. The next day, compound dilutions in DMSO/media containing doxycycline were added to the wells and incubated at 37° C., 5% CO2.
(§1) For chemical structures that include one or more stereoisomers, but are illustrated without indicating stereochemistry, the assay data refers to a mixture of stereoisomers.

[2] = In Vitro Microsome Stability Assay (human); type: in vitro ADME; conditions: human, 30 min, NADPH
Description: (§2) Potassium phosphate (423 μL of a 0.1 M solution) was added to 8-strip deep well tubes followed by human, mouse, rat, or monkey microsomes (25 μL of a 20 mg/mL solution). The tubes were then placed on ice and the test article (2 μL of a 0.25 mM solution in DMSO) was added. The mixture was preincubated at 37° C. for 3 to 5 minutes (shaking at 150 rpm) then the reaction was initiated by adding 50 μL NADPH. An aliquot of samples (100 μL) were collected at 0 and 30 min and 200 μL of an acetonitrile mixture containing IS (compound 914) was added to quench the reaction. After centrifuging for 10 min at 4000 rpm, a mixed solution of the 20 μL of the supernatant (20 μL) plus 100 μL ACN/H2O (1:1) were injected for LC-MS/MS analysis. Liver microsome stability is assessed by the % remaining of compound at 30 min which is calculated using the following equation: [(AUCanalyteT=30/AUCIS)/(AUCanalyteT=0/AUCIS)]*100
as §1

[3] = test system: full length TNFα (amino acids 1-233) fused to Gaussia Luciferase; experiment: Dox Induced TNFα-FL-Gluc Assay; type: cell-based; conditions: 24 hr, 293FRT/TO; read-out: 24 hr Dox Inducible TNFaFLGluc 293FRT/TO: Mean IC50
Excerpt: FIp-In 293 T-REx™ cells were transfected with pcDNA™5/FRT/TO plasmid inserted with cDNA encoding Gaussia Luciferase fused to the 3′ end of cDNA encoding full length TNFα (amino acids 1-233). Transfected cells were selected for resistance to the selectable markers Hygromycin and Blasticidin to create a stable cell line that contained the TNFα-FL/Gaussia Luciferase cDNA insert whose expression was regulated under the T-REx™ system. The day before assay, cells were trypsinized and plated in 384-well tissue culture plates. The next day, compound dilutions in DMSO/media containing doxycycline were added to the wells and incubated at 37° C., 5% CO2.
as §1

[4] = In Vitro Microsome Stability Assay (rat); type: in vitro ADME; conditions: rat, 30 min, NADPH
Description: as §2, §1

[5] = test system: multiple myeloma cell line NCl-H929; experiment: H929 Cell Viability Assay; type: cell-based, human; conditions: Homo sapiens, NCI-H929, 48 h, H929, read-out: 48 hr H929 Viability Celltiter-Glo: Mean EC50
Description: The human multiple myeloma cell line NCl-H929 was cultured in Advanced RPMI 1640 media (Gibco®) supplemented with 6% fetal bovine serum, 2 mM Glutamine, and 1× Penicillin/Streptomycin. On the day of assay, cells were resuspended in RPMI 1640 media supplemented with 10% fetal bovine serum, 2 mM Glutamine, and 1× Penicillin/Streptmycin and plated in 384-well tissue culture plates and treated with compound dilutions in DMSO/media. Plates were incubated at 37° C., 5% CO2 for 48 hours. After 48 hours, Celltiter-Glo® (Promega) was added to each well and luciferase signal was quantified using Tecan Infinite M1000 Pro for cell viability determination.
as §1

[6] = In Vitro Microsome Stability Assay (mouse); type: in vitro ADME; conditions: mouse, 30 min, NADPH
Description: as §2, §1

[7] = In Vitro Microsome Stability Assay (monkey); type: in vitro ADME; conditions: monkey, 30 min, NADPH
Description: as §2, §1

[8] = test system: multiple myeloma cell line U266B1; experiment: U266 Cell Viability Assay; type: cell-based, human; conditions: Homo sapiens, U-266; 48 hr, U266; read-out: 48 hr U266 Viability Celltiter-Glo: Mean EC50
Description: The human multiple myeloma cell line U266B1 was cultured in RPMI 1640 media supplemented with 10% fetal bovine serum, 2 mM Glutamine, and 1× Penicillin/Streptomycin. Cells were plated in 384-well tissue culture plates and treated with compound dilutions in DMSO/media. Plates were incubated at 37° C., 5% CO2 for 48 hours. After 48 hours, Celltiter-Glo® (Promega) was added to each well and luciferase signal was quantified using Tecan Infinite M1000 Pro for cell viability determination.
For chemical structures that include one or more stereoisomers, but are illustrated without indicating stereochemistry, the assay data refers to a mixture of stereoisomers

Row | Compound | pIC50 [1] | Liver Microsome Stability-% Left after 30 min w/ NADPH (%) Human [2] | pIC50 [3] | Liver Microsome Stability-% Left after 30 min w/ NADPH (%) Rat [4] | pEC50 [5] | Liver Microsome Stability-% Left after 30 min w/ NADPH (%) Mouse [6] | Liver Microsome Stability-% Left after 30 min w/ NADPH (%) Monkey [7] | pEC50 [8]
1 | CN(C)c1ccc(S(=O)(=O)N2CCCN(CC3CCCCC3)CCCN(S(=O)(=O)N3CCCCC3)CC3(COC3)C2)cc1 [A17, 4-{[10-(cyclohexylmethyl)-14-(piperidine-1-sulfonyl)-2-oxa-6,10,14-triazaspiro[3.11]pentadecan-6-yl]sulfonyl}-N,N-dimethylaniline] | 6.03 | 0.49% | < 4.60 | 1.06% | < 4.60 | 0.41% | 0.36% | < 4.60
2 | CC1CCCCN1S(=O)(=O)N1CCCN(CC2CCCCC2)CCCN(S(=O)(=O)c2ccc(N(C)C)cc2)CC2(CC2)C1 (stereo not drawn) [A20, 4-{[9-(cyclohexylmethyl)-13-[(2-methylpiperidin-1-yl)sulfonyl]-5,9,13-triazaspiro[2.11]tetradecan-5-yl]sulfonyl}-N,N-dimethylaniline] | 6.68 | 0.05% | < 4.60 | 0.19% | 4.89 | 0.07% | 0.06% | < 4.60
3 | CC1CCCN(S(=O)(=O)N2CCCN(CC3CCCCC3)CCCN(S(=O)(=O)c3ccc(N(C)C)cc3)CC3(CC3)C2)C1 (stereo not drawn) [A21, 4-{[9-(cyclohexylmethyl)-13-[(3-methylpiperidin-1-yl)sulfonyl]-5,9,13-triazaspiro[2.11]tetradecan-5-yl]sulfonyl}-N,N-dimethylaniline] | 6.74 | 0.14% | 5.00 | 0.62% | 5.08 | 1.77% | 0.11% | < 4.60

Results, then the compound that gave them:

Row | pIC50 [1] | Liver Microsome Stability-% Left after 30 min w/ NADPH (%) Human [2] | pIC50 [3] | Liver Microsome Stability-% Left after 30 min w/ NADPH (%) Rat [4] | pEC50 [5] | Liver Microsome Stability-% Left after 30 min w/ NADPH (%) Mouse [6] | Liver Microsome Stability-% Left after 30 min w/ NADPH (%) Monkey [7] | pEC50 [8] | Compound
4 | < 4.60 | 0.04% | < 4.60 | 0.11% | < 4.60 | 0.05% | 0.05% | 4.81 | O=S(=O)(N1CCCCC1)N1CCCN(Cc2ccccc2)CCCN(S(=O)(=O)N2CCCCC2)CC2(CC2)C1 [A18, 9-benzyl-5,13-bis(piperidin-1-ylsulfonyl)-5,9,13-triazaspiro[2.11]tetradecane hydrochloride]
5 | 6.49 | 0.05% | < 4.60 | 0.1% | < 4.60 | 0.24% | 0.08% | 4.66 | CN(C)c1ccc(S(=O)(=O)N2CCCN(CC3CCCCC3)CCCN(S(=O)(=O)N3CCCCC3)CC3(CC3)C2)cc1 [A19, 4-((9-(cyclohexylmethyl)-13-(piperidin-1-ylsulfonyl)-5,9,13-triazaspiro[2.11]tetradecan-5-yl)sulfonyl)-N,N-dimethylaniline hydrochloride]
6 | 6.12 | 0.04% | < 4.60 | 0.13% | < 4.60 | 0.17% | 0.03% | < 4.60 | CN(C)c1ccc(S(=O)(=O)N2CCCN(CC3CCCCC3)CCCN(S(=O)(=O)N3CCCC3)CC3(CC3)C2)cc1 [A23, 4-{[9-(cyclohexylmethyl)-13-(pyrrolidine-1-sulfonyl)-5,9,13-triazaspiro[2.11]tetradecan-5-yl]sulfonyl}-N,N-dimethylaniline]
